Test results from BindingDB's records for doi:10.1021/acs.jmedchem.9b00568 (University of Central Florida, 2020).

Experiment: Induction of LAT1-mediated polyamine efflux in human L3.6PL cells assessed as reduction in cell viability after 48 hrs by MTS assay

Q: Which IC50 does the source give for `CC(C)CCN1CCN([C@@H](CNCc2ccccc2)CC2CCCCC2)C[C@@H]1CC(C)C` here?
A: 3.48 µM
